Values quoted from earlier work in patent US7476743B2, “Compounds, compositions, and methods” (Cytokinetics, Inc., priority 2002, dated 2009).

Test system: A549 cells
Settings: data provided by National Cancer Institute

| SMILES | GI50 |
| --- | --- |
| O=c1[nH]cc(F)c(=O)[nH]1 [5-fluorouracil] | 1000 nM |
| COc1cccc2c1C(=O)c1c(O)c3c(c(O)c1C2=O)C[C@@](O)(C(=O)CO)C[C@@H]3O[C@H]1C[C@H](N)[C@H](O)[C@H](C)O1 [doxorubicin] | 63 nM |
| NC(=O)NO [hydroxyurea] | 500000 nM |
| CC(=O)O[C@H]1C(=O)[C@@]2(C)[C@H]([C@H](OC(=O)c3ccccc3)[C@]3(O)C[C@H](OC(=O)[C@H](O)[C@@H](NC(=O)c4ccccc4)c4ccccc4)C(C)=C1C3(C)C)[C@]1(OC(C)=O)CO[C@@H]1C[C@@H]2O [paclitaxel] | 4 nM |
